Reference: patent publication US6706664B1, “Benzoxazole compounds, process for the preparation thereof and herbicides” (UBE Industries, Ltd., priority 1999, dated 2004)

How the values were obtained:
Parameters in all cases: key: 0: normal development; 1: Less damaged; 2: Slightly damaged; 3: Moderately damaged; 4: Severely damaged; 5: All killed
[1] = test system: annual bluegrass; assay: Soil treatment test for upland field; assay type: in vivo, Poa annua; conditions: 500 g/ha, glass house 25° C., 3 weeks
Excerpt: (§1) (0: normal development, 1: Less damaged, 2: Slightly damaged, 3: Moderately damaged, 4: Severely damaged, 5: All killed).
(§2) Wagner pots, each having an area of 1/5000 are, were packed with Ube soil (alluvial soil), and then each seed of corn, soybean, cotton, wheat, solgum, sugar beat, Large crabgrass, barnyardgrass, green foxtail, blackgrass, annual bluegrass, common lambsquartes, livid amaranth and velvetleaf were planted and covered with soil.
(§3) Each wettable powder of the desired compounds (I) shown in Table 1 prepared in accordance with Example 2 was diluted with water containing a surfactant (0.05%) and uniformly sprayed on the surface of each soil so that an effective concentration of the compound (I) in each herbicide became 500 g/ha. These plants were controlled in a glass house at an average temperature of 25° C. for 3 weeks, and then herbicidal effects thereof were investigated.
(§4) The herbicidal effects were evaluated according to the evaluation method described in the above (1).

[2] = test system: wheat; assay: Soil treatment test for upland field; assay type: in vivo; conditions: 500 g/ha, glass house 25° C., 3 weeks
Excerpt: as §1, §2, §3, §4

[3] = test system: cotton; assay: Soil treatment test for upland field; assay type: in vivo; conditions: 500 g/ha, glass house 25° C., 3 weeks
Excerpt: as §1, §2, §3, §4

[4] = test system: corn; assay: Soil treatment test for upland field; assay type: in vivo; conditions: 500 g/ha, glass house 25° C., 3 weeks
Excerpt: as §1, §2, §3, §4

[5] = test system: solgum; assay: Soil treatment test for upland field; assay type: in vivo; conditions: 500 g/ha, glass house 25° C., 3 weeks
Excerpt: as §1, §2, §3, §4

[6] = test system: sugar beat; assay: Soil treatment test for upland field; assay type: in vivo; conditions: 500 g/ha, glass house 25° C., 3 weeks
Excerpt: as §1, §2, §3, §4

[7] = test system: soybean; assay: Soil treatment test for upland field; assay type: in vivo; conditions: 500 g/ha, glass house 25° C., 3 weeks
Excerpt: as §1, §2, §3, §4

[8] = test system: common lambsquartes; assay: Soil treatment test for upland field; assay type: in vivo, Chenopodium album; conditions: 500 g/ha, glass house 25° C., 3 weeks
Excerpt: as §1, §2, §3, §4

[9] = test system: livid amaranth; assay: Soil treatment test for upland field; assay type: in vivo, Amaranthus lividus; conditions: 500 g/ha, glass house 25° C., 3 weeks
Excerpt: as §1, §2, §3, §4

[10] = test system: green foxtail; assay: Soil treatment test for upland field; assay type: in vivo, Setaria viridis; conditions: 500 g/ha, glass house 25° C., 3 weeks
Excerpt: as §1, §2, §3, §4

[11] = test system: Large crabgrass; assay: Soil treatment test for upland field; assay type: in vivo, Digitaria adscendens; conditions: 500 g/ha, glass house 25° C., 3 weeks
Excerpt: as §1, §2, §3, §4

[12] = test system: barnyardgrass; assay: Herbicidal test for paddy field; assay type: in vivo, Echinochloa crusgalli; conditions: paddy field pot, 500 g/ha dropwise at 1.5 leaf stage of barnyardgrass, 3 weeks, rank vs non-treated
Experimental: (§5) Wagner pots, each having an area of 1/5000 are, were packed with Ube soil (alluvial soil) and planted with seeds or tubers of young rice plant, barnyardgrass, bulrush, flat sedge and monochoria. Then, the pots were filled with water to a depth of 3 cm.
(§6) Each wettable powder of the desired compounds (I) shown in Table 1 prepared in accordance with Example 2 was diluted with water containing a surfactant (0.05%) and subjected to dropwise addition treatment by using pipet so that an effective concentration of the compound (I) in each herbicide became 500 g/ha at 1.5 leaf stage of barnyardgrass.
(§7) These plants were controlled in a glass house at an average temperature of 25° C. for 3 weeks, and then herbicidal effects thereof were investigated.
(§8) The herbicidal effects are evaluated according to the following 6 ranks as compared with non-treated district.
as §1

[13] = test system: young rice plant; assay: Herbicidal test for paddy field; assay type: in vivo; conditions: paddy field pot, 500 g/ha dropwise at 1.5 leaf stage of barnyardgrass, 3 weeks, rank vs non-treated
Experimental: as §5, §6, §7, §8, §1

[14] = test system: blackgrass; assay: Soil treatment test for upland field; assay type: in vivo, Alopecurus aegualis; conditions: 500 g/ha, glass house 25° C., 3 weeks
Excerpt: as §1, §2, §3, §4

[15] = test system: monochoria; assay: Herbicidal test for paddy field; assay type: in vivo, Monochoria vaginalis; conditions: paddy field pot, 500 g/ha dropwise at 1.5 leaf stage of barnyardgrass, 3 weeks, rank vs non-treated
Experimental: as §5, §6, §7, §8, §1

[16] = test system: barnyardgrass; assay: Soil treatment test for upland field; assay type: in vivo, Echinochloa crusgalli; conditions: 500 g/ha, glass house 25° C., 3 weeks
Excerpt: as §1, §2, §3, §4

[17] = test system: bulrush; assay: Herbicidal test for paddy field; assay type: in vivo, Scrips juncoides; conditions: paddy field pot, 500 g/ha dropwise at 1.5 leaf stage of barnyardgrass, 3 weeks, rank vs non-treated
Experimental: as §5, §6, §7, §8, §1

[18] = test system: velvetleaf; assay: Soil treatment test for upland field; assay type: in vivo, Abutilon theophrasti; conditions: 500 g/ha, glass house 25° C., 3 weeks
Excerpt: as §1, §2, §3, §4

[19] = test system: green foxtail; assay: Foliar spread test for upland field; assay type: in vivo, Setaria viridis; conditions: foliar spray 500 ppm, 3 weeks, rank vs non-treated
Excerpt: as §1
(§9) Wagner pots, each having an area of 1/5000 are, were packed with volcanic ash soil and then each seed of corn, soybean, cotton, wheat, solgum, sugar beat, Large crabgrass, barnyardgrass, green foxtail, blackgrass, annual bluegrass, common lambsquartes, livid amaranth, velvetleaf and morning glory was planted, covered with soil and grown in a glass house at an average temperature of […] for about 2 weeks.
(§10) Each wettable powder of the desired compounds (I) shown in Table 1 prepared in accordance with Example 2 was diluted to 500 ppm with water containing a surfactant (0.5%) and then uniformly sprayed on the above respective plants.
(§11) After these plants were controlled in a glass house at an average temperature of 25° C. for 3 weeks, the herbicidal effects thereof were investigated.
as §4

[20] = test system: wheat; assay: Foliar spread test for upland field; assay type: in vivo; conditions: foliar spray 500 ppm, 3 weeks, rank vs non-treated
Excerpt: as §1, §9, §10, §11, §4

[21] = test system: corn; assay: Foliar spread test for upland field; assay type: in vivo; conditions: foliar spray 500 ppm, 3 weeks, rank vs non-treated
Excerpt: as §1, §9, §10, §11, §4

[22] = test system: solgum; assay: Foliar spread test for upland field; assay type: in vivo; conditions: foliar spray 500 ppm, 3 weeks, rank vs non-treated
Excerpt: as §1, §9, §10, §11, §4

[23] = test system: sugar beat; assay: Foliar spread test for upland field; assay type: in vivo; conditions: foliar spray 500 ppm, 3 weeks, rank vs non-treated
Excerpt: as §1, §9, §10, §11, §4

[24] = test system: morning glory; assay: Foliar spread test for upland field; assay type: in vivo, Ipomoea spps.; conditions: foliar spray 500 ppm, 3 weeks, rank vs non-treated
Excerpt: as §1, §9, §10, §11, §4

[25] = test system: livid amaranth; assay: Foliar spread test for upland field; assay type: in vivo, Amaranthus lividus; conditions: foliar spray 500 ppm, 3 weeks, rank vs non-treated
Excerpt: as §1, §9, §10, §11, §4

[26] = test system: velvetleaf; assay: Foliar spread test for upland field; assay type: in vivo, Abutilon theophrasti; conditions: foliar spray 500 ppm, 3 weeks, rank vs non-treated
Excerpt: as §1, §9, §10, §11, §4

[27] = test system: common lambsquartes; assay: Foliar spread test for upland field; assay type: in vivo, Chenopodium album; conditions: foliar spray 500 ppm, 3 weeks, rank vs non-treated
Excerpt: as §1, §9, §10, §11, §4

[28] = test system: annual bluegrass; assay: Foliar spread test for upland field; assay type: in vivo, Poa annua; conditions: foliar spray 500 ppm, 3 weeks, rank vs non-treated
Excerpt: as §1, §9, §10, §11, §4

[29] = test system: Large crabgrass; assay: Foliar spread test for upland field; assay type: in vivo, Digitaria adscendens; conditions: foliar spray 500 ppm, 3 weeks, rank vs non-treated
Excerpt: as §1, §9, §10, §11, §4

SMILES	Effects Annual bluegrass [1]	Effects Wheat [2]	Effects Cotton [3]	Effects Corn [4]	Effects Solgum [5]	Effects Sugar beat [6]	Effects Soybean [7]	Effects Common lambsquarters [8]	Effects Livid amaranth [9]	Effects Green foxtail [10]	Effects Large crabgrass [11]	Effect Barnyardgrass [12]	Effect Young rice plant [13]	Effects Blackgrass [14]	Effect Monochoria [15]	Effects Barnyardgrass [16]	Effect Bulrush [17]	Effects Velvetleaf [18]	Effects Green foxtail [19]	Effects Wheat [20]	further results
CCC(Oc1cccc(C(F)(F)F)c1)c1nc2ccc(Cl)cc2o1 (stereo not shown) [Compound 10]	4	0	0	0	0	0	0	2	4	4	5	4	0	2	1	2	3	–	–	–	–
CCC(Oc1cccc(C(F)(F)F)c1)c1nc2cc(C(F)(F)F)ccc2o1 (stereo not shown) [Compound 198]	5	1	1	2	2	5	–	4	5	5	5	4	1	5	5	4	1	3	–	–	–
CCC(Oc1ccc(F)c(C(F)(F)F)c1)c1nc2cc(C#N)c(C#N)cc2o1 (stereo not shown) [Compound 316]	4	0	0	0	0	5	0	5	5	5	5	–	0	4	5	–	3	5	5	1	Effects Corn [21]: 2; Effects Solgum [22]: 1; Effects Sugar beat [23]: 5; Effects Morning glory [24]: 2; Effects Livid amaranth [25]: 5; Effects Velvetleaf [26]: 3; Effects Common lambsquarters [27]: 3
CCCC(Oc1cccc(C#N)c1)c1nc2cc(S(C)(=O)=O)c(C)cc2o1 (stereo not shown) [Compound 492]	–	–	–	–	–	–	–	–	–	–	–	2	0	–	5	–	3	–	2	1	Effects Corn [21]: 1; Effects Solgum [22]: 1; Effects Sugar beat [23]: 4; Effects Livid amaranth [25]: 4; Effects Velvetleaf [26]: 3
CCC(Oc1ccc(F)c(C(F)(F)F)c1)c1nc2cc(OC)ccc2o1 (stereo not shown) [Compound 503]	5	2	1	2	2	5	1	5	5	5	5	–	–	5	–	5	–	5	5	2	Effects Annual bluegrass [28]: 3; Effects Corn [21]: 2; Effects Solgum [22]: 2; Effects Sugar beat [23]: 4; Effects Livid amaranth [25]: 5; Effects Velvetleaf [26]: 3; Effects Large crabgrass [29]: 3; Effects Common lambsquarters [27]: 5
